Test results reported in the NIST ThermoML archive (doi:10.1021/je060271a).

Conditions: 323.15 K, Liquid, Vibrating tube method

CCCCCCC(=O)OCC(COC(=O)CCCCCC)(COC(=O)CCCCCC)COC(=O)CCCCCC [pentaerythritol tetraheptanoate]
Conditions	mass density [kg/m3]
102 kPa	955.7
102.5 kPa	955.6
102.8 kPa	955.6
103.5 kPa	955.7
104.8 kPa	955.6
106.8 kPa	955.7
109.1 kPa	955.7
113.5 kPa	955.6
119 kPa	955.5
127.2 kPa	955.7
130.7 kPa	955.6
133.3 kPa	955.7
136.2 kPa	955.6
136.9 kPa	955.6
138 kPa	955.7
138.5 kPa	955.6
139.2 kPa	955.7
139.5 kPa	955.6
140.6 kPa	955.6
144.4 kPa	955.7
144.9 kPa	955.7
145.8 kPa	955.6
147.5 kPa	955.7
152.7 kPa	955.6
153.6 kPa	955.7
154.3 kPa	955.6
155.5 kPa	955.8
156.6 kPa	955.8
157.4 kPa	955.7
158.7 kPa	955.7
159.7 kPa	955.7
161.8 kPa	955.7
163.2 kPa	955.6
164.2 kPa	955.7
165.3 kPa	955.8
166.8 kPa	955.6
168 kPa	955.8
169.3 kPa	955.7
170.8 kPa	955.7
172 kPa	955.6
173.3 kPa	955.7
175 kPa	955.8
176.4 kPa	955.7
177.9 kPa	955.7
179.7 kPa	955.6
181.2 kPa	955.7
182.8 kPa	955.8
184.6 kPa	955.9
186.5 kPa	955.7
188 kPa	955.7
190.1 kPa	955.7
193.9 kPa	955.7
196.2 kPa	955.6
241.4 kPa	955.7
245.4 kPa	955.7
265.6 kPa	955.7
319.3 kPa	955.8
340.6 kPa	955.9
347.8 kPa	955.9
364.8 kPa	955.8
373.5 kPa	955.8
449.4 kPa	955.8
461.8 kPa	955.9
492.2 kPa	955.9
510.3 kPa	955.9
526.4 kPa	955.8
543.6 kPa	956
565.9 kPa	955.9
711.1 kPa	955.8
779.6 kPa	956.2
814.3 kPa	956.1
1089.1 kPa	956.3
1094 kPa	956.3
1098.2 kPa	956.3
1102.3 kPa	956.3
1107 kPa	956.4
1111.5 kPa	956.4
1115.9 kPa	956.4
1120.4 kPa	956.4
1125.8 kPa	956.5
1130.3 kPa	956.4
1134.8 kPa	956.4
1139 kPa	956.5
1144.5 kPa	956.3
1149 kPa	956.4
1153.9 kPa	956.4
1159.3 kPa	956.3
1168.5 kPa	956.5
1178.6 kPa	956.4
1183.8 kPa	956.5
1189 kPa	956.4
1195.1 kPa	956.5
1199.8 kPa	956.4
1204.6 kPa	956.4
1209.5 kPa	956.5
1220.6 kPa	956.5
1225.4 kPa	956.4
1231.5 kPa	956.5
1236.9 kPa	956.4
1242.6 kPa	956.5
1253.4 kPa	956.3
1258.4 kPa	956.6
1263.5 kPa	956.3
1275.6 kPa	956.5
1281.2 kPa	956.4
1286.7 kPa	956.4
1293.2 kPa	956.5
1298.9 kPa	956.4
1304.6 kPa	956.7
1311.6 kPa	956.5
1317.3 kPa	956.6
1323 kPa	956.5
1328.9 kPa	956.5
1421.1 kPa	956.7
1427.4 kPa	956.6
1434.2 kPa	956.7
1442 kPa	956.6
1448.9 kPa	956.6
1457.1 kPa	956.6
1463.5 kPa	956.7
1470.3 kPa	956.7
1477.4 kPa	956.6
1485.6 kPa	956.6
1492.5 kPa	956.6
1499.8 kPa	956.7
1507.4 kPa	956.7
1523.2 kPa	956.6
1619.7 kPa	956.8
1629.6 kPa	956.7
1719.4 kPa	956.9
1728.2 kPa	956.8
1736.9 kPa	956.8
1745.9 kPa	956.8
1775.6 kPa	956.9
2116.8 kPa	957.1
2152.2 kPa	957.1
2381.2 kPa	957.2
2470.4 kPa	957.3
2492.4 kPa	957.2
2508.4 kPa	957.3
2527.1 kPa	957.3
2559.7 kPa	957.3
3115.5 kPa	957.7
3137.8 kPa	957.7
3159 kPa	957.8
3207.3 kPa	957.8
3229.7 kPa	957.7
3644.1 kPa	958
3670.9 kPa	958.1
3703.5 kPa	958.2
3731.4 kPa	958.2
3759.3 kPa	958.1
3792.9 kPa	958.3
3822.5 kPa	958.2
3850.4 kPa	958.2
3884.5 kPa	958.2
3913.6 kPa	958.2
3943.3 kPa	958.4
4059.8 kPa	958.5
4061.6 kPa	958.4
4063.3 kPa	958.4
8709 kPa	961.5
8730.4 kPa	961.5
8752.3 kPa	961.6
8778.6 kPa	961.5
8802.6 kPa	961.5
8824.6 kPa	961.6
8846.3 kPa	961.7
8868.4 kPa	961.6
8895.1 kPa	961.7
8917.5 kPa	961.5
8944.2 kPa	961.7
8967 kPa	961.7
8990.1 kPa	961.6
9017.1 kPa	961.7
9040.1 kPa	961.7
9063.7 kPa	961.7
9091.6 kPa	961.8
9116.3 kPa	961.8
9139.9 kPa	961.8
9164 kPa	961.8
9192.5 kPa	961.9
9216.2 kPa	961.8
9269.5 kPa	962
9293.8 kPa	961.9
9318.4 kPa	962
9348.8 kPa	961.9
9373.9 kPa	961.9
9399.6 kPa	962
9431.8 kPa	962.1
9459.4 kPa	962.1
9492.7 kPa	962.1
9518.2 kPa	962
9535.7 kPa	962
9548.7 kPa	962.2
9563.6 kPa	962.2
9576.4 kPa	962.1
9591.9 kPa	962.1
9617.9 kPa	962
9633.3 kPa	961.9
9646.7 kPa	962.2
9660.3 kPa	962.1
9673.6 kPa	962.1
9689.4 kPa	962.3
9702.7 kPa	962.2
9716.1 kPa	962.2
9732.2 kPa	962.1
9788.5 kPa	962.2
9802.3 kPa	962.3
9818.5 kPa	962.2
9832.1 kPa	962.3
9845.9 kPa	962.3
9862.6 kPa	962.3
9876.5 kPa	962.3
9890.5 kPa	962.4
9906.8 kPa	962.3
9920.8 kPa	962.3
9951.3 kPa	962.3
10010 kPa	962.4
10071 kPa	962.3
10088 kPa	962.5
10103 kPa	962.5
10117 kPa	962.4
